Measurements published in patent EP4737450A1 (Longwood Pharmaceuticals (Hangzhou) Co., Ltd, priority 2023, dated 2025).
pIC50: −log10 of the molar value. Read-outs that look alike come from different tables or passages of the source.

Columns and labels:
[1] = molecular target: T1, plasma kallikrein (PKa) (Homo sapiens, UniProt P03952); assay: Inhibitory activity against plasma kallikrein in vitro (fluorescence intensity enzyme assay, Pro-Phe-Arg-AMC substrate); format: biochemical; conditions: Pro-Phe-Arg-AMC substrate
T1 construct: purchased R & D 2497-SE
T1 sequence (P03952 391-638 limits assumed): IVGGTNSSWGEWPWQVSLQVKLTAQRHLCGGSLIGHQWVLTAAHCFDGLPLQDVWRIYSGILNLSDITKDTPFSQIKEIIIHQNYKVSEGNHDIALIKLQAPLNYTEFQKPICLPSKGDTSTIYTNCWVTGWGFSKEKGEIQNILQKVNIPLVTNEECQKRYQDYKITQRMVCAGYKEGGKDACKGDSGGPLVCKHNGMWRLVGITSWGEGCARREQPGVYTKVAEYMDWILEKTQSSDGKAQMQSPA
T1 sequence (P03952 20-390 partner limits assumed): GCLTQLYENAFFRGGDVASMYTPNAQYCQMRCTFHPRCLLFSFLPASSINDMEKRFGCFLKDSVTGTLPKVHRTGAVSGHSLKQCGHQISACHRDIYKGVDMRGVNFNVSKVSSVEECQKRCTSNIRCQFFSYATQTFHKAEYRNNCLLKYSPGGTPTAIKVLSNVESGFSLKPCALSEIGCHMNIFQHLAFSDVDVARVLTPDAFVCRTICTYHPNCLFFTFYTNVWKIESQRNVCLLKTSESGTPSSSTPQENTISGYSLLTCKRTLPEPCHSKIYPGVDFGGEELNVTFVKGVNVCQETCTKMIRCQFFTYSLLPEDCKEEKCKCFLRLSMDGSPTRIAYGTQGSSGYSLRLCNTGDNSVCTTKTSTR
How it was run: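 Fluorescence intensity enzyme assay with 10 nM enzyme and 60 µM Pro-Phe-Arg-AMC (final concentrations). Compounds in DMSO, tested in duplicate over a dose series. IC50 from nonlinear regression curve fitting.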

[2] = molecular target: KLK1 (Homo sapiens, UniProt P06870); assay: Inhibitory activity against KLK1 in vitro (biochemical assay)
Sequence of KLK1 (P06870 25-262, species assumed): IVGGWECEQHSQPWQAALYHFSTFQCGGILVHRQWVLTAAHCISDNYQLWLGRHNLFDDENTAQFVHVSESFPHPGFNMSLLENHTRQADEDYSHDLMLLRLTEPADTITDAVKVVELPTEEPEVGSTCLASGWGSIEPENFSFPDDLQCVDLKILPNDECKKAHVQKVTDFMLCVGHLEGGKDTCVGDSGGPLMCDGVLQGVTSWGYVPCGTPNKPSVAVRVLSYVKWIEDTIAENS
Source text: Test Example 1. Test of the inhibitory activities of the compounds of the present invention against plasma kallikrein (PKa), KLK1 and FXIa in vitro. […]

[3] = molecular target: FXIa (Homo sapiens, UniProt P03951); assay: Inhibitory activity against FXIa in vitro (biochemical assay)
Sequence of FXIa (P03951 388-625 limits assumed): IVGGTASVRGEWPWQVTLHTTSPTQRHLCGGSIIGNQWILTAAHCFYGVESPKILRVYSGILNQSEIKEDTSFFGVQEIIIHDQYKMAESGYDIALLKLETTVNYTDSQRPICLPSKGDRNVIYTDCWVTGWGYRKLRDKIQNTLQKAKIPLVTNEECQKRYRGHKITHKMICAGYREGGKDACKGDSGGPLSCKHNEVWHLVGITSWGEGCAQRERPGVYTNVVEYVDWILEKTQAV
Sequence of FXIa (P03951 19-387 partner limits assumed): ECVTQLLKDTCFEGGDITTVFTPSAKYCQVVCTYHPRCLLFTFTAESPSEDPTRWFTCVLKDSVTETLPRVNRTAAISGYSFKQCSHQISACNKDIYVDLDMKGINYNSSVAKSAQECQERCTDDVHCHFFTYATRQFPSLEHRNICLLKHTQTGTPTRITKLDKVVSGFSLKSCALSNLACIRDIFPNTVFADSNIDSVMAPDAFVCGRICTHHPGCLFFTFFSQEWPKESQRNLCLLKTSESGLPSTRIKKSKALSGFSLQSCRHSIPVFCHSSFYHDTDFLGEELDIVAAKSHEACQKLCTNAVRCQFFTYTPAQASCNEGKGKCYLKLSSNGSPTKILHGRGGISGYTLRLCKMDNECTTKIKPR
Method: Test Example 1. Test of the inhibitory activities of the compounds of the present invention against plasma kallikrein (PKa), KLK1 and FXIa in vitro.
PKK (R & D, Cat # 2497-SE) and Pro-Phe-Arg-AMC (Nanjing Peptide, Cat # NJP23946) solutions were prepared in reaction buffer (50 mM Tris-HCl, pH 7.5, 250 mM NaCl). The final concentrations of enzyme protein and Pro-Phe-Arg-AMC in the reaction mixture were 10 nM and 60 µM, respectively. The starting concentration of the positive reference substance Avoralstat was 100 nM, 3-fold dilution, 10 + 0 dose. 0.05 µL of compound in 100% DMSO was delivered to a 384-well plate by an acoustic liquid delivery technique (Echo665; nanoliter range). Compound duplex test. 5 µL of 2 × enzyme solution was transferred to a 384 reaction plate and centrifuged at 1000 rpm for 1 minute, incubated at 25°C for 15 minutes; 5 µL of 2 × Pro-Phe-Arg-AMC solution was transferred to a 384 reaction plate, centrifuged at 1000 rpm for 1 minute, incubated at 25°C for 3 hours. […] IC50 values and nonlinear regression curve fitting were obtained using GraphPad Prism software.

[4] = plasma kallikrein enzyme assay, read-out: PKa IC50

| Structure (SMILES) | pIC50 [1, 4] | IC50 ([2]; values given in µM) | IC50 ([3]; values given in µM) | IC50 ([2]; values in nM) | IC50 ([3]; values in nM) | pIC50 ([1]; PKa IC50, plasma kallikrein enzyme assay) |
| --- | --- | --- | --- | --- | --- | --- |
| Cc1cc(N)nc(C)c1CNC(=O)c1cc(Cc2ccc(Cn3ccccc3=O)cc2)cn1C [Compound 62] | 9.92 | > 10 µM | > 10 µM | – | – | – |
| N#Cc1cc(N2CC3C(C2)C3(F)F)ccc1Cn1cnc(C(=O)NC2CCc3cc(N)ncc32)n1 (single isomer, unassigned) [Compound 54] | 9.34 | > 10 µM | > 10 µM | – | – | – |
| COCc1nn(Cc2ccc3ncc(Cl)cc3c2)cc1C(=O)NCc1c(C)cc(N)nc1C [Compound 5, N-((6-amino-2,4-dimethylpyridin-3-yl)methyl)-1-((3-chloroquinolin-6-yl)methyl)-3-(methoxymethyl)-1H-pyrazole-4-carboxamide] | 9.22 | – | – | < 0.5 µM | < 0.5 µM | – |
| COCc1nn(Cc2ccc(Cn3ccccc3=O)cc2)cc1C(=O)NCc1ncc2c(c1F)NCC2 [Compound 392] | 8.61 | > 10 µM | > 10 µM | – | – | – |
| CCc1c(N)nc(C)c(CNC(=O)c2cnn(Cc3ccc(Cn4ccccc4=O)cc3)c2)c1C [Compound 253] | 9.74 | > 10 µM | > 10 µM | – | – | – |
| Cc1cc(N)nc(C)c1CNC(=O)c1ccn(Cc2ccc(Cn3ccccc3=O)cc2)c1 [Compound 61] | 9.92 | > 10 µM | > 10 µM | – | – | – |
| Cc1nc(C)n(Cc2ccc(Cn3cc(C(=O)NCc4ccc(C(=N)N)cc4F)cn3)cc2)n1 [Compound 351] | 8.95 | > 10 µM | > 10 µM | – | – | – |
| Cc1cc(N)nc(C)c1CNC(=O)c1ccc(Cc2ccc3ncc(Cl)cc3c2)s1 [Compound 3, N-((6-amino-2,4-dimethylpyridin-3-yl)methyl)-5-((3-chloroquinolin-6-yl)methyl)thiophene-2-carboxamide] | 8.03 | – | – | < 0.5 µM | < 0.5 µM | – |
| Cn1cc(F)c2cnc(CNC(=O)c3cnn(Cc4ccc(Cn5ccccc5=O)cc4)c3)c(F)c21 [Compound 370] | 7.99 | > 10 µM | > 10 µM | – | – | – |
| COc1cc(Cn2cc(C(=O)NCc3ccc(C(=N)N)cc3)cn2)ccc1CC1CC1 [Compound 255] | 8.63 | > 10 µM | > 10 µM | – | – | – |
| N#Cc1cc(N2CC3C(C2)C3(F)F)ccc1Cn1cc(C(=O)NCc2ccc(C(=N)N)cc2)cn1 (stereo not drawn) [Compound 8] | 8.91 | – | – | < 0.5 µM | < 0.5 µM | – |
| N=C(N)c1ccc(CNC(=O)c2cnn(Cc3ccc(Cn4ccccc4=O)cc3)c2)c(F)c1 [Compound 341] | 10.15 | > 10 µM | > 10 µM | – | – | – |
| N=C(N)c1ccc(CNC(=O)c2cnn(Cc3ccc(CC4CC4)nc3)c2)cc1 [Compound 373] | 9.25 | > 10 µM | > 10 µM | – | – | – |
| Cc1cc(N)nc(C)c1CNC(=O)c1cnn(Cc2ccc(N3CC4C(C3)C4(F)F)cc2C#N)c1 (stereo not drawn) [Compound 7, N-((6-amino-2,4-dimethylpyridin-3-yl)methyl)-1-(2-cyano-4-(6,6-difluoro-3-azabicyclo[3.1.0]hexan-3-yl)benzyl)-1H-pyrazole-4-carboxamide] | > 10.29 | > 10 µM | > 10 µM | – | – | – |
| Cc1cc(N)nc(C)c1CNC(=O)c1ncn(Cc2cn3cc(C4CC4)ccc3n2)n1 [Compound 47] | 9.74 | > 10 µM | > 10 µM | – | – | – |
| COCc1nn(Cc2ccc(Cn3ccccc3=O)cc2)cc1C(=O)N[C@@H]1CCc2c1ncn2C [Compound 70] | 8.73 | > 10 µM | > 10 µM | – | – | – |
| Cn1cnc2cnc(CNC(=O)c3cnn(Cc4ccc(Cn5ccccc5=O)cc4)c3)c(F)c21 [Compound 377] | 8.85 | > 10 µM | > 10 µM | – | – | – |
| N=C(N)c1ccc(CNC(=O)c2cnn(Cc3cnc(N4CC5C(C4)C5(F)F)c(F)c3)c2)cc1 (stereo not drawn) [Compound 374] | 10.22 | > 10 µM | > 10 µM | – | – | – |
| COCc1nn(Cc2ccc(Cn3cc(F)ccc3=O)cc2)cc1C(=O)NCc1c(C)cc(N)nc1C [Compound 24] | 9.76 | > 10 µM | > 10 µM | – | – | – |
| N=C(N)c1ccc(CNC(=O)c2cnn(Cc3cc(F)c(OCC4CC4)c(F)c3)c2)cc1 [Compound 345] | 8.70 | > 10 µM | > 10 µM | – | – | – |
| COCc1nn(Cc2ccc(Cn3ccccc3=O)cc2)cc1C(=O)NCc1ccc(C(=N)N)nc1 [Compound 361] | 10.05 | > 10 µM | > 10 µM | – | – | – |
| COc1ccnc(CNC(=O)c2cn(Cc3ccc(Cn4ccccc4=O)cc3)nc2N2CC(C)(O)C2)c1F [Compound 296] | – | > 10 µM | > 10 µM | – | – | 8.65 |
| Cc1cc(N)nc(C)c1CNC(=O)c1ncn(C(C)c2ccc(Cn3ccccc3=O)cc2)n1 (stereo not drawn) [Compound 50] | 9.05 | > 10 µM | > 10 µM | – | – | – |

More lines, main results first:

| pIC50 [1, 4] | IC50 ([2]; values given in µM) | IC50 ([3]; values given in µM) | IC50 ([2]; values in nM) | IC50 ([3]; values in nM) | Structure (SMILES) | pIC50 ([1]; PKa IC50, plasma kallikrein enzyme assay) |
| --- | --- | --- | --- | --- | --- | --- |
| 9.74 | > 10 µM | > 10 µM | – | – | N=C(N)c1ccc(CNC(=O)c2cnn(Cc3ccc(N4CCOCC4)c(C(F)(F)F)c3)c2)cc1 [Compound 388] | – |
| 8.91 | > 10 µM | > 10 µM | – | – | Cc1cc2nccn2c(C)c1CNC(=O)c1cn(Cc2ccc(N3CC4C(C3)C4(F)F)cc2C#N)nc1C(F)(F)F (stereo not drawn) [Compound 204] | – |
| < 7.00 | > 10 µM | > 10 µM | – | – | COc1cc(Cn2cc(C(=O)NCc3ccc(C(=N)N)cc3)cn2)cc(OC)c1C(=O)C1CC1 [Compound 371] | – |
| 9.74 | > 10 µM | > 10 µM | – | – | COCc1nn(Cc2ccc(C3CCCCC3)c(C(F)(F)F)c2)cc1C(=O)NCc1ccc(C(=N)N)cc1 [Compound 153] | – |
| 8.67 | > 10 µM | > 10 µM | – | – | COc1ccc(F)c(CNC(=O)c2cn(Cc3ccc(Cn4cc(F)ccc4=O)cc3)nc2C2CC2(F)F)c1F (stereo not drawn) [Compound 218] | – |
| 10.49 | – | – | < 0.5 µM | < 0.5 µM | Cc1cc(N)nc(C)c1CNC(=O)c1cn(Cc2cn3cc(C4CC4)ccc3n2)nn1 [Compound 6, N-((6-amino-2,4-dimethylpyridin-3-yl)methyl)-1-(6-cyclopropylimidazo[1,2-a]pyridin-2-yl)methyl-1H-1,2,3-triazole-4-carboxamide] | – |
| 8.69 | > 10 µM | > 10 µM | – | – | O=C(NCc1ncc2c(c1F)NCC2)c1cn(Cc2ccc(Cn3ccccc3=O)cc2)nc1C(F)(F)F [Compound 390] | – |
| 8.80 | > 10 µM | > 10 µM | – | – | CN(C)c1ccnc(CNC(=O)c2cn(Cc3ccc(Cn4ccccc4=O)cc3)nc2C2CC2(F)F)c1F (stereo not drawn) [Compound 310] | – |
| 8.64 | > 10 µM | > 10 µM | – | – | COc1ccc(Cl)c(CNC(=O)c2cn(Cc3ccc(Cn4ccccc4=O)cc3)nc2COCC2(F)COC2)c1F [Compound 289] | – |
| 9.17 | > 10 µM | > 10 µM | – | – | CCc1c(N)nc(C)c(CNC(=O)c2ncn(Cc3ccc(Cn4ccccc4=O)cc3)n2)c1C [Compound 257] | – |
| 8.98 | > 10 µM | > 10 µM | – | – | N=C(N)c1ccc(CNC(=O)c2cnn(Cc3cc(Cl)c(C(=O)C4CC4)c(Cl)c3)c2)cc1 [Compound 393] | – |
| 9.36 | > 10 µM | > 10 µM | – | – | Cc1nc(N)c(C)c(C)c1CNC(=O)c1cnn(Cc2ccc(Cn3ccccc3=O)cc2)c1 [Compound 256] | – |
| 9.54 | > 10 µM | > 10 µM | – | – | Cc1cc(N)nc(C)c1CNC(=O)c1nsc(Cc2ccc(Cn3ccccc3=O)cc2)n1 [Compound 67] | – |
